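Protocol summary: plate cells (96-well), add compound at 5 concentrations, incubate 48 h, interpolate endpoints linearly. The concentration for 50% growth inhibition is given as GI50. TGI: total growth inhibition.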
Key:
Assay in all cases: growth of human tumour cells (NCI), 48 h
[1] = system: A549 NSCLC
[2] = system: HCC-2998 colon
[3] = system: MOLT-4 leukemia
[4] = system: NCI-H23 lung
[5] = system: NCI-H522 lung
[6] = system: SK-MEL-28 melanoma
[7] = system: SK-OV-3 ovarian
[8] = system: U251 CNS
[9] = system: MDA-MB-231 breast
[10] = system: OVCAR-3 ovarian

Structure (SMILES) | TGI [1] [µM] | TGI [2] [µM] | TGI [3] [µM] | TGI [4] [µM] | TGI [5] [µM] | TGI [6] [µM] | TGI [7] [µM] | TGI [8] [µM] | TGI [9] [µM] | TGI [10] [µM] | GI50 [2] [µM] | GI50 [9] [µM] | GI50 [4] [µM] | GI50 [10] [µM] | GI50 [6] [µM] | GI50 [7] [µM] | GI50 [8] [µM] | GI50 [1] [µM] | GI50 [3] [µM] | GI50 [5] [µM]
NC(=O)N/N=C(\C(=O)C(=O)Nc1ccc(Cl)c(C(F)(F)F)c1)c1nc2ccc(C(=O)c3ccccc3)cc2[nH]c1=O | > 100 | > 100 | > 100 | > 100 | > 100 | > 100 | > 100 | > 100 | – | – | – | – | – | – | – | – | – | – | – | –
COc1ccc(C(=O)N2CCc3c([nH]c4ccccc34)C2C(=O)O)o1 (stereo not drawn) | > 10 | > 10 | > 10 | – | – | > 10 | > 10 | > 10 | > 10 | > 10 | – | – | – | – | – | – | – | – | – | –
N=C1N(c2ccccc2)C(=O)C23CCCC2C13N1CCOCC1 (stereo not drawn) | > 100 | > 100 | > 100 | > 100 | > 100 | > 100 | > 100 | > 100 | – | > 100 | – | – | – | – | – | – | – | – | – | –
CCCCCCCC/C=C/CCCCCCCC1=NC(C)(C)CN1C(C)C | – | 2.72 | – | 2.83 | – | 2.86 | 2.59 | 3 | 2.97 | 2.53 | 1.42 | 1.59 | 1.51 | 1.27 | 1.53 | 1.32 | 1.62 | – | – | –
CCC(C)OC(=O)C1C2CCC(O2)C1C(=O)O (stereo not drawn) | > 100 | > 100 | > 100 | > 100 | > 100 | > 100 | > 100 | > 67.3 | – | > 100 | – | – | – | – | – | – | – | – | – | –
COC1C=CC(C(=O)[N+]2=Cc3[nH]c4ccccc4c3CC2)O1 (stereo not drawn) | > 100 | > 100 | > 100 | > 100 | > 100 | > 100 | > 100 | > 100 | – | > 100 | – | – | – | – | – | – | – | – | – | –
Cc1cc(O)c(C(c2cccnc2)c2c(O)cc(C)[nH]c2=O)c(=O)[nH]1 | > 100 | – | > 100 | > 100 | > 100 | > 100 | > 100 | > 100 | > 100 | > 100 | – | – | – | – | – | – | – | – | – | –
Cc1cc(C)c(O)c(Cc2cccc(Cc3cc(C)cc(C)c3O)c2O)c1 | > 100 | – | > 100 | > 100 | > 100 | > 100 | > 100 | > 100 | > 100 | > 100 | – | – | – | – | – | – | – | – | – | –
COC(=O)C1(C(=O)OC)CC2c3c(c4ccccc4n3C)CC(C1=O)N2Cc1ccccc1 (stereo not drawn) | > 100 | > 100 | > 100 | > 100 | > 100 | > 100 | > 100 | > 100 | – | > 100 | – | – | – | – | – | – | – | – | – | –
COC(=O)C(=O)C(C(=O)C(=O)Nc1ccc(Cl)cc1C)c1nc2ccc(C(=O)c3ccccc3)cc2[nH]c1=O (stereo not drawn) | > 100 | > 100 | > 100 | > 100 | > 100 | – | > 100 | > 100 | – | > 100 | – | – | – | – | – | – | – | – | – | –
Cc1ccccc1NC(=O)C(=O)C(c1cnc2ccc([N+](=O)[O-])cc2n1)[N+](=O)[O-] (stereo not drawn) | > 100 | > 100 | > 100 | > 100 | > 100 | > 100 | > 100 | > 100 | – | – | – | – | – | – | – | – | – | – | – | –
C#CCN=C(N/N=C/c1ccc([N+](=O)[O-])o1)NS(=O)(=O)c1cc(C)c(Cl)cc1SCC(N)=O | 35.3 | – | 31.9 | 33.1 | 23.3 | 32.7 | > 100 | 84.9 | 26.4 | 41.1 | – | 11.4 | 18.5 | 24.9 | 14.5 | 49.2 | 22.6 | 18 | 13.2 | 10
COC(=O)/C(C#N)=C1\CCC(O)N1C (stereo not drawn) | > 100 | > 100 | > 100 | > 100 | > 100 | > 100 | > 100 | > 100 | – | > 100 | – | – | – | – | – | – | – | – | – | –
Clc1cc(Cl)c(Cl)c(-c2nc(-c3cccnc3)cs2)c1 | > 100 | – | > 100 | > 100 | 38.3 | 34.8 | > 100 | > 100 | > 100 | 81.9 | – | 53 | 30 | 16.2 | 12.9 | > 100 | 37.8 | 24.8 | 39.1 | 9.22
C/C(CC(=O)NNc1ccc([N+](=O)[O-])cc1)=N\Nc1ccc([N+](=O)[O-])cc1 | > 100 | > 100 | > 100 | 39.3 | 7.92 | > 100 | – | 33.2 | 19.7 | 31.1 | 6.4 | 2.12 | 15 | 8.03 | 31.5 | – | 10.5 | 5.42 | 6.45 | 0.776
COC(=O)N/N=C(/CCN1CCCC1)CC(c1ccccc1)c1c(O)c2ccccc2oc1=O (stereo not drawn) | > 100 | > 100 | > 100 | > 100 | > 100 | > 100 | > 100 | > 100 | – | > 100 | – | – | – | – | – | – | – | – | – | –
C=C[C@]1(C)CCC2=C(CCC3C2(C)CCC[C@]3(C)CO)C1 (stereo partly drawn) | > 100 | > 100 | 84.9 | > 100 | 52.5 | > 100 | > 100 | 63.8 | – | > 100 | – | – | – | – | – | – | – | – | – | –
Oc1ccc(CNCc2ccccc2)c2cccnc12 | > 100 | – | 18.9 | > 100 | > 100 | > 100 | > 76.9 | 2.77 | – | 0.721 | – | – | – | – | – | – | – | – | – | –
CC(=O)NC(CCCCNC(=O)N(CCCl)N=O)C(=O)NCc1ccccc1 (stereo not drawn) | > 100 | > 100 | > 100 | > 100 | > 100 | > 100 | – | > 100 | – | > 100 | – | – | – | – | – | – | – | – | – | –
O=C1C(=O)N(C(=O)c2ccc(Cl)c(Cl)c2)c2ccc(Cl)cc21 | > 100 | – | > 100 | > 100 | – | > 100 | > 100 | > 100 | – | > 100 | – | – | – | – | – | – | – | – | – | –
COc1cc(-c2cc(=O)c3ccccc3o2)ccc1N | > 100 | > 100 | > 100 | > 100 | > 100 | > 100 | > 100 | > 100 | – | > 100 | – | – | – | – | – | – | – | – | – | –
